The record followed here is US20180170941A1 (priority 2016, published 2018).

Bounds are passed on as bounds.

The assay deals with T1, α5β3γ2 GABAA receptors (Ltk cell membranes) (Homo sapiens, UniProt P18507+P31644).
T1 construct: membranes
T1 sequence (P31644 32-462): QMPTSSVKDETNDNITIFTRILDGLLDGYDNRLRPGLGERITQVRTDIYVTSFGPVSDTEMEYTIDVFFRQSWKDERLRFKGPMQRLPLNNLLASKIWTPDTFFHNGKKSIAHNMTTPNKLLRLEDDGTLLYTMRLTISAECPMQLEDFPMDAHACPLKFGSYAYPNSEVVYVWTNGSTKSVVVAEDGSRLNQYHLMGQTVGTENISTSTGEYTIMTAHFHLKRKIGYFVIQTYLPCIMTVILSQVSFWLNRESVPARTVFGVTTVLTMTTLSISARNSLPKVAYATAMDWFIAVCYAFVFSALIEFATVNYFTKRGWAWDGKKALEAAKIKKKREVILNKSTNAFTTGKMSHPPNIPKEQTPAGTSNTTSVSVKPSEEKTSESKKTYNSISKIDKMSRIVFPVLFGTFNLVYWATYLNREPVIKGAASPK
T1 sequence (P28472 26-473 partner): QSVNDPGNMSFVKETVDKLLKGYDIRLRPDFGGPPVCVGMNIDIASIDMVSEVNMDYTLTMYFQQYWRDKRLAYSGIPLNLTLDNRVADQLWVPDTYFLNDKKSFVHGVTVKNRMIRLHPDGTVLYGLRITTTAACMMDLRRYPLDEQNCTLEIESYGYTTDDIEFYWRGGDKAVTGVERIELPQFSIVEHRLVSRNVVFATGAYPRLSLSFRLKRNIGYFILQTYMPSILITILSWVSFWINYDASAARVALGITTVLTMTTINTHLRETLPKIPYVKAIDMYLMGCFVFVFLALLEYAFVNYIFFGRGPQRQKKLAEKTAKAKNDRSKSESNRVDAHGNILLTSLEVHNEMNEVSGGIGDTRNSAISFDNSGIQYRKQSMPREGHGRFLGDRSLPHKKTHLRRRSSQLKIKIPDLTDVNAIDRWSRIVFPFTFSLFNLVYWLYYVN
T1 sequence (P18507 40-475): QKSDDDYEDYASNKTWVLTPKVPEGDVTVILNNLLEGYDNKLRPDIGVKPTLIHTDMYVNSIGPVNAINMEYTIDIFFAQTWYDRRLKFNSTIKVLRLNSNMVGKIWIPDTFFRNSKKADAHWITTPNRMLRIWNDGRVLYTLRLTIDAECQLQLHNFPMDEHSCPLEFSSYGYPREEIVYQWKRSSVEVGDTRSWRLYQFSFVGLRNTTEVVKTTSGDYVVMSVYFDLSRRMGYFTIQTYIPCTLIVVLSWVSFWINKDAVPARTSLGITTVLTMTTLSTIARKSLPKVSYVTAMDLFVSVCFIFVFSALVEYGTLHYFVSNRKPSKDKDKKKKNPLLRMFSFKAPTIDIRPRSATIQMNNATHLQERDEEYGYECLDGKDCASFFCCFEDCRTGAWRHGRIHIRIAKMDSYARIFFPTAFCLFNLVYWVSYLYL
Kind of assay: Binding activity of test compounds on GABAAR: inhibition of [3H]Ro15-1788 binding. The following applies: GABA α5 Binding Ki Values, inhibition of [3H]Ro15-1788 binding; reported as ranges. In a few lines:
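Membranes from dexamethasone-induced Ltk cells (α5 line: 0.5 μM, 1 day); binding with [3H]Ro15-1788 for 1 h at 4 °C in 50 mM KH2PO4, 1 mM EDTA, 0.2 M KCl, pH 7.4, 0.2 mg/ml α5 protein. Nonspecific binding defined by 10 μM diazepam; filtration, scintillation counting, triplicates.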
For `COCc1nnc2n1Cc1c(C3=N[C@@H](c4ccccc4)CO3)ncn1-c1ccc(OC)cc1-2` [Compound 343], the Ki is < 100 nM.

Regarding `COc1ccc2c(c1)-n1nncc1Cc1c(-c3ncco3)ncn1-2` [Compound 344], the Ki was < 100 nM.

On to `CCC#Cc1ncn2c1Cn1c(COC)nnc1-c1cc(Cl)ccc1-2` [Compound 345], for which the Ki is < 100 nM.

For the compound `COCc1nnc2n1Cc1c(C#CCc3ccccc3)ncn1-c1ccc(Cl)cc1-2` [Compound 346], the Ki was < 100 nM.

With `COc1ccc2c(c1)-n1nnc(C)c1Cc1c(-c3ncco3)ncn1-2` [Compound 347], the Ki lay in the range of 100 to 1000 nM.

The compound `COCc1nnc2n1Cc1c(-c3nc4ccccc4o3)ncn1-c1ccc(Cl)cc1-2` [Compound 348] had a Ki of 100 to 1000 nM.

With `Clc1ccc2c(c1)-c1nnc(COc3ccccc3)n1Cc1c(-c3ncco3)ncn1-2` [Compound 349], the Ki was < 100 nM.

In the case of `Clc1ccc2c(c1)-c1nnc(COCc3ccccc3)n1Cc1c(-c3ncco3)ncn1-2` [Compound 350], the Ki was < 100 nM.

As to `C#Cc1ncn2c1Cn1c(COCc3ccccc3)nnc1-c1cc(Cl)ccc1-2` [Compound 351], the Ki is < 100 nM.

Turning to `CC#Cc1ncn2c1Cn1c(COCc3ccccc3)nnc1-c1cc(Cl)ccc1-2` [Compound 352], the Ki is 100 to 1000 nM.

The compound `CC(C)[C@H]1COC(c2ncn3c2Cc2cnnn2-c2cc(Cl)ccc2-3)=N1` [Compound 363] showed a Ki of 100 to 1000 nM.

Regarding `CC1(C)COC(c2ncn3c2Cc2cnnn2-c2cc(Cl)ccc2-3)=N1` [Compound 364], the inhibitory constant (Ki) was < 100 nM.

`COc1ccc2c(c1)-n1nncc1Cc1c(C3=N[C@@H](c4ccccc4F)CO3)ncn1-2` [Compound 366]: the Ki was < 100 nM.

On to `COc1ccc2c(c1)-n1nncc1Cc1c(C3=N[C@@H](c4ccc(Cl)cc4)CO3)ncn1-2` [Compound 368], for which the Ki is < 100 nM.

Regarding `COc1ccc2c(c1)-n1nncc1Cc1c(C3=N[C@@H](c4cc(F)ccc4F)CO3)ncn1-2` [Compound 369], the Ki is < 100 nM.

`COc1ccc2c(c1)-n1nncc1Cc1c(C3=N[C@@H](c4cccc5ccccc45)CO3)ncn1-2` [Compound 370] returned an inhibitory constant (Ki) of 100 to 1000 nM.

In turn, `COc1ccc2c(c1)-n1nncc1Cc1c(C3=N[C@@H](c4cccc(C(F)(F)F)c4)CO3)ncn1-2` [Compound 371] showed a Ki of 100 to 1000 nM.

As for `COc1ccc2c(c1)-n1nncc1Cc1c(C3=N[C@@H](c4ccc(C(F)(F)F)cc4)CO3)ncn1-2` [Compound 372], the Ki was < 100 nM.

For the compound `COc1ccc2c(c1)-n1nncc1Cc1c(C3=N[C@@H](c4ccccc4C)CO3)ncn1-2` [Compound 373], the Ki is < 100 nM.

Consider `COc1ccc2c(c1)-n1nncc1Cc1c(C3=N[C@@H](c4ccc(Cl)cc4Cl)CO3)ncn1-2` [Compound 374], for which the Ki fell in the range of 100 to 1000 nM.

With `COc1ccc2c(c1)-n1nncc1Cc1c(C3=N[C@@H](c4ccc(F)c(C(F)(F)F)c4)CO3)ncn1-2` [Compound 375], the inhibition constant (Ki) is < 100 nM.

`Cc1nnn2c1Cc1c(C3=N[C@@H](c4ccccc4)CO3)ncn1-c1ccc(Cl)cc1-2` [Compound 376] yielded a Ki of 100 to 1000 nM.

As to `Cc1nnn2c1Cc1c(C3=N[C@H](c4ccccc4)CO3)ncn1-c1ccc(Cl)cc1-2` [Compound 377], the Ki is < 100 nM.

Compound `Cc1nnn2c1Cc1c(C3=N[C@@H](c4ccccc4F)CO3)ncn1-c1ccc(Cl)cc1-2` [Compound 378] displayed a Ki of 100 to 1000 nM.

Compound `Cc1nnn2c1Cc1c(C3=N[C@@H](c4ccc(F)cc4)CO3)ncn1-c1ccc(Cl)cc1-2` [Compound 379] came in with a Ki of 100 to 1000 nM.

Compound `COc1ccc2c(c1)-n1nncc1Cc1c(C3=N[C@@H](C(C)C)CO3)ncn1-2` [Compound 382] yielded a Ki of 100 to 1000 nM.

Regarding `COc1ccc2c(c1)-n1nncc1Cc1c(C3=NCCO3)ncn1-2` [Compound 383], the Ki was < 100 nM.

`C#Cc1ccc2c(c1)-c1nnc(COC)n1Cc1c(C3=N[C@@H](C(C)C)CO3)ncn1-2` [Compound 384] yielded a Ki of 100 to 1000 nM.

As to `Clc1ccc2c(c1)-n1nncc1Cc1c(-c3nc(-c4ccccc4)co3)ncn1-2` [Compound 385], the Ki was < 100 nM.

Usually Ki stands for the dissociation constant of the complex between target and ligand, obtained from inhibition or displacement. A low value points to higher affinity.
